Measurements taken from article PMC3702004, “Comparison of Intake and Systemic Relative Effect Potencies of Dioxin-like Compounds in Female Mice after a Single Oral Dose” (Environmental Health Perspectives, 2013).

Tested on: Cyp1b1 mRNA in liver
Test: Cyp1b1 gene expression in liver (real-time PCR)
Type: in vivo, female C57BL/6 mice
Conditions: dose metric Adm dose; 3 days after single oral dose
Experimental: (§1) Animals. Eight-week-old female C57BL/6 mice (Harlan laboratories, Venray, the Netherlands) were randomly assigned to treatment groups (six animals per group) and allowed to acclimate for 1.5 weeks. The animals were housed in groups in standard cages and conditions (23 ± 2°C, 50–60% relative humidity, 12-hr dark/light cycle) with free access to food and water. Mice received a single dose of test compound by oral gavage at a dosing volume of 10 mL/kg body weight (BW). Mice treated with corn oil vehicle (10 mL/kg BW) served as controls. For each congener, five different doses were administered, ranging from 0.5–100 μg/kg BW (TCDD) to 5,000–500,000 µg/kg BW (PCB-153). Detailed information on doses is provided in Supplemental Material, Table S1 (http://dx.doi.org/10.1289/ehp.1206336). On day 3 after dosing, animals were euthanized by CO2/O2 asphyxiation, and blood was immediately collected from the abdominal aorta. The liver, thymus, spleen, and adipose tissue were removed, weighed (liver, thymus, and spleen), snap frozen, and stored at –80°C. All animal treatments were performed with permission of the Animal Ethical Committee (DEC Utrecht) and performed according to the [Law on Animal Experiments (1977)]. Animals were treated humanely and with regard for alleviation of suffering.
(§2) RNA isolation and quantitative real-time polymerase chain reaction (PCR). Total RNA was isolated from liver and PBLs using a QIAGEN RNeasy kit (QIAGEN). Purity and concentration of the isolated RNA was determined by measuring the absorbance ratio at 260/280 nm and 230/260 nm with a Nanodrop 2000 spectrophotometer (Thermo Scientific, Asheville, NC, USA). RNA was reverse transcribed to complementary DNA (cDNA) using the iScript cDNA synthesis Kit (Bio-Rad, Veenendaal, the Netherlands). Quantitative real-time PCR analyses were performed using the iQ Real-Time PCR Detection System with SYBR green (Bio-Rad). Amplification reactions were set up with […] containing 12.5 μL iQ SYBR Green Supermix (Bio-rad), 0.5 μL distilled H2O, 1 μL (10 μM) forward primer, 1 μL (10 μM) reverse primer, and 10 μL first strand cDNA (10X diluted). Primer sequences were as follows: Cyp1a1: forward-5´-GGTTAACCATGACCGGGAACT-3´ and reverse-5´-TGCCCAAACCAAAGAGAGTGA-3´ ([Schulz et al. 2012]); Cyp1a2: forward-5´-ACATTCCCAAGGAGCGCTGTATCT-3´ and reverse-5´-GTCGATGGCCGAGTTGTTATTGGT-3´ ([Flaveny et al. 2010]); Cyp1b1: forward-5´-GTGGCTGCTCATCCTCTTTACC-3´ and reverse-5´-CCCACAACCTGGTCCAACTC-3´ ([Berge et al. 2004]); β-actin: forward-5´-ATGCTCCCCGGGCTGTAT-3´ and reverse-5´-CATAGGAGTCCTTCTGACCCATTC-3´ ([Schulz et al. 2012]). All primers were run through the National Center for Biotechnology Information Primer-BLAST database (http://www.ncbi.nlm.nih.gov/tools/primer-blast/) to confirm specificity and validate for optimal annealing temperature (60°C for all primers) and efficiency. The efficiency of all primer pairs was 98–102% (tested at 60°C). The following program was used for denaturation and amplification of cDNA: 3 min at 95°C, followed by 40 cycles of 15 sec at 95°C and 45 sec at 60°C. Gene expression for each sample was expressed as threshold cycle (Ct), normalized to the reference gene β-actin (ΔCt). We calculated fold induction relative to the control group.
(§3) Data analysis. We obtained concentration–response curves using a sigmoidal dose–response nonlinear regression curve fit with variable slope (GraphPad Prism 6.01; GraphPad Software Inc., San Diego, CA, USA):
(§4) In this Hill equation, y is the dependent variable (EROD activity or fold induction of mRNA levels), x the independent variable (administered or systemic dose), E0 is the estimated background response level, Emax is the maximum response, b is the estimated median effective concentration (EC50), and n is the shaping parameter of the Hill curve.
(§5) Using the congener-specific BMR20TCDD concentration, REPs were calculated relatively to TCDD: […]

Row | SMILES | BMR20TCDD Liver Cyp1b1 mRNA
1 | Clc1cc2oc3c(Cl)c(Cl)c(Cl)cc3c2cc1Cl [Congener 4-PeCDF, 2,3,4,7,8-pentachlorodibenzofuran] | 150 µg/kg BW
2 | Clc1ccc(-c2cc(Cl)c(Cl)c(Cl)c2Cl)cc1Cl [PCB-156, 2,3,3´,4,4´,5-hexachlorobiphenyl] | 95,664 µg/kg BW
3 | Clc1cc2c(cc1Cl)Oc1cc(Cl)c(Cl)cc1O2 [TCDD, 2,3,7,8-tetrachlorodibenzodioxin, reference compound] | 3.55 µg/kg BW
4 | Clc1cc2c(cc1Cl)Oc1c(cc(Cl)c(Cl)c1Cl)O2 [PeCDD, 1,2,3,7,8-pentachlorodibenzodioxin] | 10.1 µg/kg BW

Same assay, conditions: dose metric Syst adipose; 3 days after single oral dose

Row | SMILES | BMR20TCDD Liver Cyp1b1 mRNA
5 | Clc1cc2oc3c(Cl)c(Cl)c(Cl)cc3c2cc1Cl [Congener 4-PeCDF, 2,3,4,7,8-pentachlorodibenzofuran] | 461 ng/g lipid
6 | Clc1ccc(-c2cc(Cl)c(Cl)c(Cl)c2Cl)cc1Cl [PCB-156, 2,3,3´,4,4´,5-hexachlorobiphenyl] | 745,126 ng/g lipid
7 | Clc1cc2c(cc1Cl)Oc1cc(Cl)c(Cl)cc1O2 [TCDD, 2,3,7,8-tetrachlorodibenzodioxin, reference compound] | 10.3 ng/g lipid
8 | Clc1cc2c(cc1Cl)Oc1c(cc(Cl)c(Cl)c1Cl)O2 [PeCDD, 1,2,3,7,8-pentachlorodibenzodioxin] | 19.4 ng/g lipid

Same assay, conditions: dose metric Syst plasma; 3 days after single oral dose

Row | SMILES | BMR20TCDD Liver Cyp1b1 mRNA
9 | Clc1cc2oc3c(Cl)c(Cl)c(Cl)cc3c2cc1Cl [Congener 4-PeCDF, 2,3,4,7,8-pentachlorodibenzofuran] | 44.6 ng/g lipid
10 | Clc1ccc(-c2cc(Cl)c(Cl)c(Cl)c2Cl)cc1Cl [PCB-156, 2,3,3´,4,4´,5-hexachlorobiphenyl] | 553,459 ng/g lipid
11 | Clc1cc2c(cc1Cl)Oc1cc(Cl)c(Cl)cc1O2 [TCDD, 2,3,7,8-tetrachlorodibenzodioxin, reference compound] | 11.6 ng/g lipid
12 | Clc1cc2c(cc1Cl)Oc1c(cc(Cl)c(Cl)c1Cl)O2 [PeCDD, 1,2,3,7,8-pentachlorodibenzodioxin] | 18.5 ng/g lipid

Same assay, conditions: relative to TCDD; dose metric Adm dose (µg/kg BW)

Row | SMILES | REP Liver Cyp1b1 mRNA
13 | Clc1cc2oc3c(Cl)c(Cl)c(Cl)cc3c2cc1Cl [Congener 4-PeCDF, 2,3,4,7,8-pentachlorodibenzofuran] | 0.02
14 | Clc1ccc(-c2cc(Cl)c(Cl)c(Cl)c2Cl)cc1Cl [PCB-156, 2,3,3´,4,4´,5-hexachlorobiphenyl] | 0.00004
15 | Clc1cc2c(cc1Cl)Oc1cc(Cl)c(Cl)cc1O2 [TCDD, 2,3,7,8-tetrachlorodibenzodioxin, reference compound] | 1
16 | Clc1cc2c(cc1Cl)Oc1c(cc(Cl)c(Cl)c1Cl)O2 [PeCDD, 1,2,3,7,8-pentachlorodibenzodioxin] | 0.4

Same assay, conditions: relative to TCDD; dose metric Syst adipose (ng/g lipid)

Row | SMILES | REP Liver Cyp1b1 mRNA
17 | Clc1cc2oc3c(Cl)c(Cl)c(Cl)cc3c2cc1Cl [Congener 4-PeCDF, 2,3,4,7,8-pentachlorodibenzofuran] | 0.02
18 | Clc1ccc(-c2cc(Cl)c(Cl)c(Cl)c2Cl)cc1Cl [PCB-156, 2,3,3´,4,4´,5-hexachlorobiphenyl] | 0.00001
19 | Clc1cc2c(cc1Cl)Oc1cc(Cl)c(Cl)cc1O2 [TCDD, 2,3,7,8-tetrachlorodibenzodioxin, reference compound] | 1
20 | Clc1cc2c(cc1Cl)Oc1c(cc(Cl)c(Cl)c1Cl)O2 [PeCDD, 1,2,3,7,8-pentachlorodibenzodioxin] | 0.5

Same assay, conditions: relative to TCDD; dose metric Syst liver (ng/g lipid)

Row | SMILES | REP Liver Cyp1b1 mRNA
21 | Clc1cc2oc3c(Cl)c(Cl)c(Cl)cc3c2cc1Cl [Congener 4-PeCDF, 2,3,4,7,8-pentachlorodibenzofuran] | 0.01
22 | Clc1ccc(-c2cc(Cl)c(Cl)c(Cl)c2Cl)cc1Cl [PCB-156, 2,3,3´,4,4´,5-hexachlorobiphenyl] | 0.0003
23 | Clc1cc2c(cc1Cl)Oc1cc(Cl)c(Cl)cc1O2 [TCDD, 2,3,7,8-tetrachlorodibenzodioxin, reference compound] | 1
24 | Clc1cc2c(cc1Cl)Oc1c(cc(Cl)c(Cl)c1Cl)O2 [PeCDD, 1,2,3,7,8-pentachlorodibenzodioxin] | 0.2

Same assay, conditions: relative to TCDD; dose metric Syst liver (ng/g liver)

Row | SMILES | REP Liver Cyp1b1 mRNA
25 | Clc1cc2oc3c(Cl)c(Cl)c(Cl)cc3c2cc1Cl [Congener 4-PeCDF, 2,3,4,7,8-pentachlorodibenzofuran] | 0.02
26 | Clc1ccc(-c2cc(Cl)c(Cl)c(Cl)c2Cl)cc1Cl [PCB-156, 2,3,3´,4,4´,5-hexachlorobiphenyl] | 0.0004
27 | Clc1cc2c(cc1Cl)Oc1cc(Cl)c(Cl)cc1O2 [TCDD, 2,3,7,8-tetrachlorodibenzodioxin, reference compound] | 1
28 | Clc1cc2c(cc1Cl)Oc1c(cc(Cl)c(Cl)c1Cl)O2 [PeCDD, 1,2,3,7,8-pentachlorodibenzodioxin] | 0.3

Same assay, conditions: relative to TCDD; dose metric Syst plasma (ng/g lipid)

Row | SMILES | REP Liver Cyp1b1 mRNA
29 | Clc1cc2oc3c(Cl)c(Cl)c(Cl)cc3c2cc1Cl [Congener 4-PeCDF, 2,3,4,7,8-pentachlorodibenzofuran] | 0.3
30 | Clc1ccc(-c2cc(Cl)c(Cl)c(Cl)c2Cl)cc1Cl [PCB-156, 2,3,3´,4,4´,5-hexachlorobiphenyl] | 0.00002
31 | Clc1cc2c(cc1Cl)Oc1cc(Cl)c(Cl)cc1O2 [TCDD, 2,3,7,8-tetrachlorodibenzodioxin, reference compound] | 1
32 | Clc1cc2c(cc1Cl)Oc1c(cc(Cl)c(Cl)c1Cl)O2 [PeCDD, 1,2,3,7,8-pentachlorodibenzodioxin] | 0.6

Same assay, conditions: single oral dose, day 3

Row | SMILES | Effect on hepatic Cyp1b1 mRNA expression
33 | Clc1cc2oc3c(Cl)c(Cl)c(Cl)cc3c2cc1Cl [Congener 4-PeCDF, 2,3,4,7,8-pentachlorodibenzofuran] | dose-dependently increased
34 | Clc1ccc(-c2cc(Cl)c(Cl)c(Cl)c2Cl)cc1Cl [PCB-156, 2,3,3´,4,4´,5-hexachlorobiphenyl] | dose-dependently increased
35 | Clc1cc2c(cc1Cl)Oc1cc(Cl)c(Cl)cc1O2 [TCDD, 2,3,7,8-tetrachlorodibenzodioxin, reference compound] | dose-dependently increased
36 | Clc1ccc(-c2cc(Cl)c(Cl)c(Cl)c2)cc1Cl [PCB-126, 3,3´,4,4´,5-pentachlorobiphenyl] | did not induce
37 | Clc1cc2c(cc1Cl)Oc1c(cc(Cl)c(Cl)c1Cl)O2 [PeCDD, 1,2,3,7,8-pentachlorodibenzodioxin] | dose-dependently increased

Tested on: Cyp1b1 mRNA
Test: Cyp1b1 gene expression in liver (real-time PCR)
Type: in vivo, female C57BL/6 mice
Conditions: female, C57BL/6, mouse, in vivo; single oral dose, day 3; read-out: Maximum induction of hepatic Cyp1b1 mRNA, of the maximal response of TCDD
Experimental: as §1, §2, §3, §4, §5

Row | SMILES | Emax
38 | Clc1ccc(-c2cc(Cl)c(Cl)cc2Cl)cc1Cl [PCB-118, 2,3´,4,4´,5-pentachlorobiphenyl] | < 0.3%

Tested on: not given
Test: not given
Conditions: CYP1A2 knockout mice; ref Diliberto et al. 1997; cited from earlier work

Row | SMILES | Liver:adipose ratio
39 | Clc1cc2c(cc1Cl)Oc1cc(Cl)c(Cl)cc1O2 [TCDD, 2,3,7,8-tetrachlorodibenzodioxin, reference compound] | < 0.3
